According to US12053529B2, “Amino-reactive positively charged ATRP initiators that maintain their positive charge during synthesis of biomacro-initiators” (Carnegie Mellon University, priority 2018, dated 2024):
Starred links: 1 amine or outer side, 2 acyl side, 3 side chain; linkers in the order of their positions; H or OH if unused. Residues, ends and D or L forms follow the SMILES beside them. *: point of attachment. pNA = O=[N+]([O-])c1ccc(N*)cc1; Suc = O=C(CCC(=O)[*:2])[*:1]

Tests used:
[1] = test system: T1, C[C@H](NC(=O)CCC(=O)O)C(=O)N[C@@H](C)C(=O)N1CCC[C@H]1C(=O)N[C@@H](Cc1ccccc1)C(=O)Nc1ccc([N+](=O)[O-])cc1; experiment: Michaelis-Menten kinetics, Suc-AAPF-pNA hydrolysis, native CT; format: biochemical, bovine; details: other: pH 8, 37° C.
T1 construct: mature A, B and C chains of chymotrypsinogen A; unmodified
Method: (§1) CT and Lysozyme were used as received. AChE and Uricase were dialyzed in 25 mM sodium phosphate (pH 7.0) using a 25 kDa molecular weight cutoff dialysis tube in a refrigerator for 24 hours and then lyophilized. Copper (II) chloride, sodium ascorbate, 1,1,4,7,10,10-hexamethyltriethylenetetramine (HMTETA), 2-bromo-2-methylpropionyl bromide, 3-(dimethylamino)-1-propylamine, N,N′-diisopropylcarbodimine, fluorescamine, acetylthiocholine iodide, 5,5′-dithiobis(2-nitrobenzoic acid) (DTNB) were purchased from Sigma Aldrich. 4-bromobutyric acid and N-hydroxysuccinimide were purchased from TCI USA (Portland, OR). Micro BCA assay kit was purchased from Thermo Fisher Scientific.
(§2) CT: N-succinyl-Ala-Ala-Pro-Phe-p-nitroanilide (Suc-AAPF-pNA; SEQ ID NO:1) was used as a substrate for CT. Substrate (0-20 mg/mL in DMSO, 30 μL) was added to a 1.5 mL cuvette with sodium phosphate buffer (pH 8, 100 mM). Native CT, CT-initiators, and CT-polymers (0.1 mg/mL protein, 4 μM, 10 μL) was added to the cuvette with substrate and buffer. The initial substrate hydrolysis rate was measured in triplicate by recording the increase in absorbance at 412 nm over the first 60 seconds after mixing using a Lambda 2 Perkin Elmer ultraviolet-visible spectrometer equipped with a temperature-controlled cell holder at 37° C. Michaelis-Menten parameters were determined using nonlinear curve fitting of initial hydrolysis rate versus substrate concentration in GraphPad.
Michaelis-Menten kinetics were measured at pH 8 and 37° C. using Succinyl-Ala-Ala-Pro-Phe-p-nitroanilide (Suc-AAPF-pNA; SEQ ID NO:1), a hydrophobic and negatively charged substrate for CT that binds to the hydrophobic S1 binding pocket and is then cleaved by the catalytic triad (Ser 195, His 57, Asp 102). […] The observed decrease in KM upon neutral initiator attachment could have been the result of the hydrophobicity of the initiator. The partition coefficient (log D) of a lysine side chain at pH 8.0 is −1.00. After covalent attachment of the neutral initiator, the log D value of the new product rose to 1.82. […]

[2] = biological target: α-chymotrypsin (CT) from bovine pancreas, CT-positive initiator-pSMA (Bos taurus, UniProt P00766); experiment: Michaelis-Menten kinetics, Suc-AAPF-pNA hydrolysis, CT-positive initiator-pSMA; format: biochemical; details: pH 8, 37° C.; CT-positive initiator-pSMA vs CT-neutral initiator-pSMA
Method: as §1, with “Scientific. […]” for “Scientific.”
(§3) CT-pCBMA and pSMA conjugate synthesis: A solution of monomer (230 mg for CBMA and 246 mg for SMA, 1.0 mmol respectively) and CT-initiator (23 mg for neutral and 25 mg for positive initiator, 10 μmol of initiator) in 100 mM sodium phosphate (20 mL, pH 7) was sealed and bubbled with nitrogen gas in an ice bath for 30 minutes. […] Conjugate CT content was determined by BCA assay as described elsewhere (Lee et al. 2005, supra). […]
(§4) CT: N-succinyl-Ala-Ala-Pro-Phe-p-nitroanilide (Suc-AAPF-pNA; SEQ ID NO:1) was used as a substrate for CT. […] Michaelis-Menten parameters were determined using nonlinear curve fitting of initial hydrolysis rate versus substrate concentration in GraphPad. […]

[3] = biological target: α-chymotrypsin (CT) from bovine pancreas, CT-neutral initiator-pCBMA (Bos taurus, UniProt P00766); experiment: Michaelis-Menten kinetics, Suc-AAPF-pNA hydrolysis, CT-neutral initiator-pCBMA; format: biochemical; details: pH 8, 37° C.
Method: as §1, with “Scientific. […]” for “Scientific.”
as §3, §4

[4] = biological target: α-chymotrypsin (CT) from bovine pancreas, CT-positive initiator (CT(+)) (Bos taurus, UniProt P00766); experiment: Michaelis-Menten kinetics, Suc-AAPF-pNA hydrolysis, CT-positive initiator; format: biochemical; details: pH 8, 37° C.; CT-positive initiator vs native CT
Method: as §1, with “Scientific. […]” for “Scientific.”
as §2, with “Substrate (0-20 mg/mL in DMSO, 30 μL) was added to a 1.5 mL cuvette with sodium phosphate buffer (pH 8, 100 mM). Native CT, CT-initiators, and CT-polymers (0.1 mg/mL protein, 4 μM, 10 μL) was added to the cuvette with substrate and buffer.” left out, “GraphPad. […]” for “GraphPad.”

[5] = biological target: α-chymotrypsin (CT) from bovine pancreas, CT-mixed initiator (average of 9 neutral and 5 positive initiators per CT) (Bos taurus, UniProt P00766); experiment: Michaelis-Menten kinetics, Suc-AAPF-pNA hydrolysis, CT-mixed initiator; format: biochemical; details: pH 8, 37° C.
Method: as §1
as §2, with “Native CT, CT-initiators, and CT-polymers (0.1 mg/mL protein, 4 μM, 10 μL) was added to the cuvette with substrate and buffer.” left out, “GraphPad. […]” for “GraphPad.”

[6] = biological target: α-chymotrypsin (CT) from bovine pancreas, CT-neutral initiator (CT(N)) (Bos taurus, UniProt P00766); experiment: Michaelis-Menten kinetics, Suc-AAPF-pNA hydrolysis, CT-neutral initiator; format: biochemical; details: pH 8, 37° C.; CT-neutral initiator vs native CT
Method: as §1, with “Scientific. […]” for “Scientific.”
as §2, with “Substrate (0-20 mg/mL in DMSO, 30 μL) was added to a 1.5 mL cuvette with sodium phosphate buffer (pH 8, 100 mM). Native CT, CT-initiators, and CT-polymers (0.1 mg/mL protein, 4 μM, 10 μL) was added to the cuvette with substrate and buffer.” left out, “GraphPad. […]” for “GraphPad.”

[7] = biological target: α-chymotrypsin (CT) from bovine pancreas, CT-positive initiator-pCBMA (Bos taurus, UniProt P00766); experiment: Michaelis-Menten kinetics, Suc-AAPF-pNA hydrolysis, CT-positive initiator-pCBMA; format: biochemical; details: pH 8, 37° C.
Method: as §1, with “Scientific. […]” for “Scientific.”
as §3, §4

Compound | Km [1] [µM] | kcat [1] [s⁻¹] | kcat/Km [1] [M⁻¹ s⁻¹] | overall activity (kcat and KM) versus CT-neutral initiator-pSMA [2] [fold] | kcat/KM [3] [M⁻¹ s⁻¹] | change in KM versus native CT [4] | kcat [5] [s⁻¹] | kcat/KM [5] [M⁻¹ s⁻¹] | change in KM versus native CT [6] | kcat/KM ([7]; CT-positive initiator-pCBMA) [M⁻¹ s⁻¹] | overall catalytic efficiency versus native CT ([7]; CT-positive initiator-pCBMA vs native CT)
α-chymotrypsin (CT) from bovine pancreas (type II), native (Bos taurus) | 107 ± 5 | 26.6 ± 0.3 | 250000 ± 10000 |  |  |  |  |  |  |  | 
C[C@H](NC(=O)CCC(=O)O)C(=O)N[C@@H](C)C(=O)N1CCC[C@H]1C(=O)N[C@@H](Cc1ccccc1)C(=O)Nc1ccc([N+](=O)[O-])cc1 [Suc-AAPF-pNA, N-succinyl-Ala-Ala-Pro-Phe-p-nitroanilide] (Suc-AAPF-pNA) |  |  |  | ~20 | 300000 ± 10000 | decrease in KM by half | 16.7 ± 0.4 | 200000 ± 10000 | decrease in KM by half | 420000 ± 20000 | nearly double that of native CT
